Here are results for 34 molecules from patent US20260035403A1, “NUCLEOSIDE LINE-1 INHIBITORS” (TRANSPOSON THERAPEUTICS, INC., priority 2022, published 2026).

The structures appear in SMILES notation. Bounds are passed on as bounds.

The first assay deals with human LINE-1. As to the kind of experiment: Human LINE-1 retrotransposition assay (HeLa cell-based dual-luciferase reporter). As to conditions: Homo sapiens, HeLa, 72 h, Human LINE-1 activity inhibition; HeLa cells, reporter plasmid pYX017, Firefly/Renilla, 72 h incubation. The method, boiled down: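 HeLa cells transfected with pYX017 dual-luciferase L1 reporter and treated with serially diluted compound (0.2% DMSO final) for 72 h at 37° C. Relative L1 activity as Firefly/Renilla ratio; IC50 from four-parameter logistic fit.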
`C#C[C@]1(CO)OC(n2cc(Br)c(N)nc2=O)C[C@@H]1O` (stereo partly drawn) [compound 60, 4-amino-5-bromo-1-((4S,5R)-5-ethynyl-4-hydroxy-5-(hydroxymethyl)tetrahydrofuran-2-yl)pyrimidin-2(1H)-one]: the IC50 came out at 5.65 µM.
In turn, `C#C[C@]1(CO)OC(n2cnc3c(OC)ncnc32)C[C@@H]1O` (stereo partly drawn) [compound 61, (2R,3S)-2-ethynyl-2-(hydroxymethyl)-5-(6-methoxy-9H-purin-9-yl)tetrahydrofuran-3-ol] showed an IC50 of 7.43 µM.
In turn, `C=C[C@]1(CO)O[C@H](n2cc(C)c(=O)[nH]c2=O)C[C@@H]1O` [compound 63, 1-((2S,4S,5R)-4-hydroxy-5-(hydroxymethyl)-5-vinyltetrahydrofuran-2-yl)-5-methylpyrimidine-2,4(1H,3H)-dione] returned an IC50 of over 12.5 µM.
Same read-out and setting: to `C=C[C@]1(CO)O[C@H](n2cc(Br)c(=O)[nH]c2=O)C[C@@H]1O` [compound 65, 5-bromo-1-((2S,4S,5R)-4-hydroxy-5-(hydroxymethyl)-5-vinyltetrahydrofuran-2-yl)pyrimidine-2,4(1H,3H)-dione] belongs 21.9 µM; to `C=C[C@]1(CO)OC(n2cc(OC)c(=O)[nH]c2=O)C[C@@H]1O` (stereo partly drawn) [compound 66, 1-((4S,5R)-4-hydroxy-5-(hydroxymethyl)-5-vinyltetrahydrofuran-2-yl)-5-methoxypyrimidine-2,4(1H,3H)-dione], 0.738 µM.
The molecule `C=C[C@]1(CO)OC(n2cc(Br)c(N)nc2=O)C[C@@H]1O` (stereo partly drawn) [compound 67, 4-amino-5-bromo-1-((4S,5R)-4-hydroxy-5-(hydroxymethyl)-5-vinyltetrahydrofuran-2-yl)pyrimidin-2(1H)-one] registered an IC50 of 0.004 µM.
In turn, `CC[C@]1(CO)O[C@H](n2cc(C)c(=O)[nH]c2=O)CC1O` (stereo partly drawn) [compound 71, 1-((2S,5R)-5-ethyl-4-hydroxy-5-(hydroxymethyl)tetrahydrofuran-2-yl)-5-methylpyrimidine-2,4(1H,3H)-dione] displayed an IC50 of 1.6 µM.
As for `C#C[C@]1(CO)O[C@H](n2cnc3c(N)nc(N)nc32)C[C@@H]1O` [compound 72, (2R,3S,5S)-5-(2,6-diamino-9H-purin-9-yl)-2-ethynyl-2-(hydroxymethyl)tetrahydrofuran-3-ol], the IC50 worked out at 23.4 µM.
The molecule `C#C[C@@]1(CO)C=C[C@H](n2cc(SC(F)(F)F)c(=O)[nH]c2=O)O1` [compound 73, 1-((2R,5R)-5-ethynyl-5-(hydroxymethyl)-2,5-dihydrofuran-2-yl)-5-((trifluoromethyl)thio)pyrimidine-2,4(1H,3H)-dione] yielded an IC50 of over 50 µM.
Same read-out and setting: to `C#C[C@]1(CO)O[C@H](n2cnc3c(N)ncnc32)C[C@@H]1O` [compound 80, (2R,3S,5S)-5-(6-amino-9H-purin-9-yl)-2-ethynyl-2-(hydroxymethyl)tetrahydrofuran-3-ol] belongs 3.7 µM.
For `C#C[C@]1(CO)OC(n2cnc3c(O)ncnc32)C[C@@H]1O` (stereo partly drawn) [compound 81, 9-((4S,5R)-5-ethynyl-4-hydroxy-5-(hydroxymethyl)tetrahydrofuran-2-yl)-9H-purin-6-ol], 4.4 µM corresponded to half-maximal inhibition (IC50). The IC50 values of the last two molecules are within 1.5-fold of each other.
On the same count and under the same terms, to `C#C[C@]1(CO)O[C@H](n2cnc3c(NC4CC4)nc(N)nc32)C[C@@H]1O` [compound 83, (2R,3S,5S)-5-(2-amino-6-(cyclopropylamino)-9H-purin-9-yl)-2-ethynyl-2-(hydroxymethyl)tetrahydrofuran-3-ol] belongs 0.429 µM.
Same read-out and setting: to `C#C[C@]1(CO)O[C@H](n2cnc3c(NC4CC4)nc(F)nc32)C[C@@H]1O` [compound 84, (2R,3S,5S)-5-(6-(cyclopropylamino)-2-fluoro-9H-purin-9-yl)-2-ethynyl-2-(hydroxymethyl)tetrahydrofuran-3-ol] belongs 14 µM; to `C#C[C@]1(CO)O[C@@H](n2cnc3c(NC4CC4)nc(F)nc32)C[C@@H]1O` [compound 85, (2R,3S,5R)-5-(6-(cyclopropylamino)-2-fluoro-9H-purin-9-yl)-2-ethynyl-2-(hydroxymethyl)tetrahydrofuran-3-ol], 0.124 µM.
The same measure, in the same setting: to `C#C[C@]1(CO)O[C@@H](n2cnc3c(NC4CC4)ncnc32)C[C@@H]1O` [compound 86, (2R,3S,5R)-5-(6-(cyclopropylamino)-9H-purin-9-yl)-2-ethynyl-2-(hydroxymethyl)tetrahydrofuran-3-ol] belongs 3.4 µM.
In turn, `C=C[C@]1(CO)O[C@H](n2cnc3c(O)nc(N)nc32)C[C@@H]1O` [compound 87, 2-amino-9-((2S,4S,5R)-4-hydroxy-5-(hydroxymethyl)-5-vinyltetrahydrofuran-2-yl)-9H-purin-6-ol] gave a concentration for half-maximal inhibition (IC50) of 0.173 µM.
Consider `C=C[C@]1(CO)O[C@H](n2ccc(N)nc2=O)C[C@@H]1O` [compound 89, 4-amino-1-((2S,4S,5R)-4-hydroxy-5-(hydroxymethyl)-5-vinyltetrahydrofuran-2-yl)pyrimidin-2(1H)-one], for which 1.28 µM corresponded to half-maximal inhibition (IC50).
Still for that read-out and setting: to `C#C[C@]1(CO)O[C@@H](N2C=NC3C(NC)=NC(F)=NC32)C[C@@H]1O` (stereo partly drawn) [compound 93, (2R,3S,5R)-2-ethynyl-5-(2-fluoro-6-(methylamino)-4,5-dihydro-9H-purin-9-yl)-2-(hydroxymethyl)tetrahydrofuran-3-ol] belongs 15 µM; to `Cc1cn([C@@H]2C[C@@H](O)[C@H](CO)O2)c(=O)[nH]c1=O` [compound 95, 1-((2S,4R,5S)-4-hydroxy-5-(hydroxymethyl)tetrahydrofuran-2-yl)-5-methylpyrimidine-2,4(1H,3H)-dione], over 50 µM; to `C#C[C@]1(CO)O[C@@H](n2cnc3c(OC)nc(N)nc32)C[C@@H]1O` [compound 101, (2R,3S,5R)-5-(2-amino-6-methoxy-9H-purin-9-yl)-2-ethynyl-2-(hydroxymethyl)tetrahydrofuran-3-ol], 0.259 µM.
The same measure, in the same setting: to `C=C[C@]1(CO)O[C@H](Nc2[nH]c(=O)ncc2Br)C[C@@H]1O` [compound 104, 5-bromo-6-(((2S,4S,5R)-4-hydroxy-5-(hydroxymethyl)-5-vinyltetrahydrofuran-2-yl)amino)pyrimidin-2(1H)-one] belongs 4.9 µM; to `CC[C@]1(CO)O[C@@H](n2cc(Br)c(N)nc2=O)C[C@@H]1O` [compound 105, 4-amino-5-bromo-1-((2R,4S,5R)-5-ethyl-4-hydroxy-5-(hydroxymethyl)tetrahydrofuran-2-yl)pyrimidin-2(1H)-one], 0.15 µM; to `C#C[C@@]1(COC)C=C[C@H](n2cc(C)c(=O)[nH]c2=O)O1` [compound 106, 1-((2R,5R)-5-ethynyl-5-(methoxymethyl)-2,5-dihydrofuran-2-yl)-5-methylpyrimidine-2,4(1H,3H)-dione], 24 µM.
`COC[C@@H]1C=C[C@H](n2cc(C)c(=O)[nH]c2=O)O1` [compound 107, 1-((2R,5S)-5-(methoxymethyl)-2,5-dihydrofuran-2-yl)-5-methylpyrimidine-2,4(1H,3H)-dione]: the IC50 is 7.3 µM.
The molecule `Nc1nc(=O)n([C@H]2C[C@@H]3OC=C[C@]3(CO)O2)cc1F` [compound 139, 4-amino-5-fluoro-1-((2R,3aS,6aR)-6a-(hydroxymethyl)-2,3,3a,6a-tetrahydrofuro[3,2-b]furan-2-yl)pyrimidin-2(1H)-one] had an IC50 of 3.17 µM.
Still for that read-out and setting: to `Nc1nc(F)nc2c1ncn2[C@H]1C[C@H](O)C(CO)(CO)O1` [compound 154, ((3S,5R)-5-(6-amino-2-fluoro-9H-purin-9-yl)-3-hydroxytetrahydrofuran-2,2-diyl)dimethanol] belongs over 40 µM; to `COc1nc(N)nc2c1ncn2[C@H]1C[C@H](O)[C@](CO)(CF)O1` [compound 163, (2R,3S,5R)-5-(2-amino-6-methoxy-9H-purin-9-yl)-2-(fluoromethyl)-2-(hydroxymethyl)tetrahydrofuran-3-ol], 14 µM.
On the same count and under the same terms, to `N#C[C@]1(CO)O[C@@H](n2cc(Cl)c(N)nc2=O)C[C@@H]1O` [compound 164, (2R,3S,5R)-5-(4-amino-5-chloro-2-oxopyrimidin-1(2H)-yl)-3-hydroxy-2-(hydroxymethyl)tetrahydrofuran-2-carbonitrile] belongs over 50 µM; to `CNc1nc(N)nc2c1ncn2[C@H]1C[C@H](O)[C@](CO)(CF)O1` [compound 166, (2R,3S,5R)-5-(2-amino-6-(methylamino)-9H-purin-9-yl)-2-(fluoromethyl)-2-(hydroxymethyl)tetrahydrofuran-3-ol], 0.417 µM; to `C[C@]1(CO)O[C@@H](n2cc(F)c(=O)[nH]c2=O)[C@H](O)[C@@H]1O` [compound 189, 1-((2R,3R,4S,5R)-3,4-dihydroxy-5-(hydroxymethyl)-5-methyltetrahydrofuran-2-yl)-5-fluoropyrimidine-2,4(1H,3H)-dione], 9.17 µM.
As to `CC[C@]1(CO)O[C@@H](n2cnc3c(N)nc(Cl)nc32)C[C@@H]1O` [compound 190, (2R,3S,5R)-5-(6-amino-2-chloro-9H-purin-9-yl)-2-ethyl-2-(hydroxymethyl)tetrahydrofuran-3-ol], the IC50 was about 50 µM.
Same read-out and setting: to `CC[C@]1(CO)O[C@@H](n2cnc3c(N)ncnc32)[C@@H](F)[C@@H]1O` [compound 192, (2R,3R,4S,5R)-5-(6-amino-9H-purin-9-yl)-2-ethyl-4-fluoro-2-(hydroxymethyl)tetrahydrofuran-3-ol] belongs 0.122 µM.

Staying with this assay, now noted: Human LINE-1 activity inhibition; HeLa cells, reporter plasmid pYX017, Firefly/Renilla, 72 h incubation.
`C#C[C@]1(CO)OC(n2cnc3c(O)ncnc32)C[C@@H]1O` (stereo partly drawn) [compound 81, 9-((4S,5R)-5-ethynyl-4-hydroxy-5-(hydroxymethyl)tetrahydrofuran-2-yl)-9H-purin-6-ol] yielded a concentration for half-maximal inhibition (IC50) of 7.45 µM. That is a single-digit micromolar value.
The same measure, in the same setting: to `CC[C@]1(CO)O[C@@H](n2cnc3c(N)nc(Cl)nc32)[C@@H](F)[C@@H]1O` [compound 182, (2R,3R,4S,5R)-5-(6-amino-2-chloro-9H-purin-9-yl)-2-ethyl-4-fluoro-2-(hydroxymethyl)tetrahydrofuran-3-ol] belongs 293 µM; to `CC[C@]1(CO)O[C@@H](n2cnc3c(N)nc(F)nc32)[C@@H](F)[C@@H]1O` [compound 191, (2R,3R,4S,5R)-5-(6-amino-2-fluoro-9H-purin-9-yl)-2-ethyl-4-fluoro-2-(hydroxymethyl)tetrahydrofuran-3-ol], 56 µM.
